Test results: article PMC3586668 (PLoS ONE, 2013)
Read-outs that look alike come from different tables or passages of the source.

What was measured:
Caco-2 monolayers [1] = system: Caco-2 monolayers
Description: (§2) Human colorectal adenocarcinoma Caco-2 cell line (HTB-37) obtained from American Type culture Collection (ATCC) (Manassas, VA, USA) was used for all experiments. Cell lines were maintained as per the provider's protocol. Cell culture was performed in Hyclone® DMEM high glucose medium (Thermo Fisher Scientific, Pittsburgh, PA, USA) supplemented with 50 IU/ml of penicillin, 50 mg/L of streptomycin, and 100 ml/L of fetal bovine serum at 37°C in a humidity-controlled 5% CO2 cell culture incubator. Cells were split at a ratio of 1∶3 after reaching 90% confluence. All transwell experiments were performed with cells between 5th–14th passages due to possible phenotypic differences between cells from high and low passage intervals. Cells were cultivated for at least 2 passages before seeding onto transwell filter supports to stabilize the cell phenotype 12].
(§3) Transwell experiments were performed with slight modifications to the protocols provided by the manufacturer (BD Biosciences, Bedford, MA, USA). For the development of the transwell assay system for permeability experiments, Caco-2 cells were seeded onto fibrillar collagen coated polyethylene terephthalate (PET) filter supports (1 µm pore size) of BD Biocoat™ HTS Caco-2 assay system (BD Biosciences, Bedford, MA, USA) according to manufacturer's protocol with slight modifications. Briefly, Caco-2 cells were seeded onto the filter supports at a concentration of 200,000 cells/insert (6.6×10^5 cells/cm^2) using basal seeding medium (with MITO+ serum extender) provided in the HTS system, and were incubated in cell culture incubator (37°C, 5% CO2). Cells were fed from both sides using the Multiwell feeder tray. After 24 hrs, the feeding medium was replaced with MITO+ serum extender supplemented Entero-STIM medium, and growing monolayers were incubated as described earlier. Upon incubation for 48–72 hrs, Caco-2 cells developed a tight junction monolayer, integrity of which was determined by TEER measurements.
(§4) The integrity of Caco-2 monolayer was determined by measuring the transepithelial electrical resistance (TEER) of the cell monolayer grown on filter supports using Millicell-ERS electrical resistance measuring system (Millipore, Bedford, MA) using chopstick electrodes. Briefly, the Caco-2 inserts were transferred to a 24-well culture plate with 1400 µl medium in the feeding well, and 500 µl in culture inserts. The electrodes were immersed in a way that shorter electrode was in the insert and longer electrode in the outer well. […] Based on the literature, a resistance reading of 150–200 Ω.cm^2 was considered as indicative of a confluent Caco-2 monolayer with tight junctions.
(§5) Briefly, cells were pre-conditioned with basal seeding medium for 30 minutes before starting the experiment at 37°C. […] The basolateral chamber consisted 1400 µl of the same growth medium as per manufacturer's protocol. The plates were incubated for 5 hrs at room temperature with gentle shaking (5 rocks/minute on a rocker, so as to mimic intestinal peristaltic movement). TEER measurements were performed at predetermined time intervals (0. 0.25, 0.5, 1, 2, 3, and 5 hrs). At the same time-points, 100 µl samples were withdrawn from the basolateral chamber to quantify the total amount of FITC-ins/sulforhodamine-B transported across the monolayer. The withdrawn sample was immediately replaced with equivalent amount of the experimental medium.
(§6) The apparent permeability coefficients (Papp) of all polypeptides were calculated using the following equation 19]: [drawing 1]
(§7) Where dQ/dt is the amount of solutes transported across the Caco-2 barrier in time dt, C0 is the solute concentration in apical compartment at time zero, and A is the cross-sectional area of the epithelium in contact with apical solution. Total percent drug transport was calculated by dividing the cumulative amount of molecules transported with the original loading concentrations.

Caco-2 monolayers [2] = assay: Validation of 3-day Caco-2 transwell system: FITC-insulin and sulforhodamine-B transport (fluorescence); details: for Apparent Permeability (Papp) / % Transport in 5 hours / Cumulative amount transported to basolateral chamber: room temperature, fluorescence, mean±SD n = 3; for Apparent Permeability (Papp): gentle shaking; for Cumulative amount transported to basolateral chamber: after 5 h
Description: as §2, §3, §4, §5, §6, §7

Caco-2 monolayers [3] = assay: Polypeptide transport across 3-day Caco-2 monolayers (ELISA); format: in vitro ADME, Human; details: 3-day Caco-2, apical-to-basolateral, room temperature, mean±SD n = 3; for Total amount transported to the basolateral side: 5 h
Description: (§1) Transport of three different macromolecular pharmaceutical peptides was studied across the Caco-2 monolayers at different loading concentrations. […] Different doses were selected for different polypeptides based upon the values reported in literature to not only approach therapeutic efficacy but also to provide a valid comparison with the results obtained in 21-day monolayer system. Polypeptides were incubated with Caco-2 monolayers for 5 hrs at room temperature with gentle shaking. TEER measurements were performed and samples were collected from basolateral chambers of the Caco-2 plates to determine total drug transport and apparent permeability at different concentrations.

[4] = as above; format: in vitro ADME, Human; details: human, 3-day Caco-2, apical-to-basolateral, room temperature, gentle shaking, mean±SD n = 3, read-out: Apparent Permeability (Papp)
Description: as §1

rat jejunum = system: rat jejunum; design: method as in 2 sources, ref 33 = [33]; PMID 21501675; doi:10.1016/j.ijpharm.2011.04.003; 33 Woitiski CB , Sarmento B , Carvalho RA , Neufeld RJ , Veiga F ( 2011 ) Facilitated nanoscale delivery of insulin across intestinal membrane models . Int J Pharm 412 : 123 – 131 . 21501675 10.1016/j ||| ref 36 = [36]; PMID 10227707; doi:10.1023/a:1018819012405; 36 Sinko PJ , Lee YH , Makhey V , Leesman GD , Sutyak JP , et al ( 1999 ) Biopharmaceutical approaches for developing and assessing oral peptide delivery strategies and systems: in vitro permeability; details: cited from earlier work
[5] = apical loading 0.005 mg (5 µg/well)
[6] = apical loading 0.024 mg (24 µg/well)

For “FITC-Insulin: fluorescein isothiocynate conjugated bovine insulin (Sigma Aldrich)”, the “Apparent permeability coefficients (Papp), range over the loadings studied” value (Caco-2 monolayers [1]) was 8.2±1.8-10.5±1.8 and the “Effect on Caco-2 monolayer integrity during transport” value (Caco-2 monolayers [1]) was “without damaging the monolayer”.
In the case of `CCN(CC)c1ccc2c(-c3ccc(S(=O)(=O)O)cc3S(=O)(=O)[O-])c3ccc(=[N+](CC)CC)cc-3oc2c1` [Sulforhodamine-B, sulforhodamine B], the “Apparent Permeability (Papp)” value (Caco-2 monolayers [2]; 3-day Caco-2 (BD Biocoat HTS, serum-free), apical-to-basolateral, apical loading 0.05 mg/well in 500 µl basal seeding medium, 30 min pre-conditioning, 5 h) is reported as 5.0±2.9 10^−6 cm/s, the “% Transport in 5 hours” value (Caco-2 monolayers [2]; 3-day Caco-2, apical-to-basolateral, apical loading 0.05 mg/well, 5 h) is reported as 2.8±1.6% and the “Cumulative amount transported to basolateral chamber” value (“Cumulative amount transported” below) (Caco-2 monolayers [2]; 3-day Caco-2, apical-to-basolateral, apical loading 0.05 mg/well) is reported as 0.002 ± 0.0008 mg. The “Apparent Permeability (Papp)” value (Caco-2 monolayers [2]; 3-day Caco-2, apical-to-basolateral, apical loading 0.3 mg/well in 500 µl, 5 h) was 5.3±0.8 10^−6 cm/s, the “% Transport in 5 hours” value (Caco-2 monolayers [2]; 3-day Caco-2, apical-to-basolateral, apical loading 0.3 mg/well, 5 h) was 2.9±0.4% and the “Cumulative amount transported” value (Caco-2 monolayers [2]; 3-day Caco-2, apical-to-basolateral, apical loading 0.3 mg/well) was 0.009 ± 0.001 mg. For the same molecule, the “Apparent Permeability (Papp)” value (Caco-2 monolayers [2]; 3-day Caco-2, apical-to-basolateral, apical loading 0.6 mg/well in 500 µl, 5 h) was 4.0±0.6 10^−6 cm/s, the “% Transport in 5 hours” value (Caco-2 monolayers [2]; 3-day Caco-2, apical-to-basolateral, apical loading 0.6 mg/well, 5 h) was 2.3±0.4% and the “Cumulative amount transported” value (Caco-2 monolayers [2]; 3-day Caco-2, apical-to-basolateral, apical loading 0.6 mg/well) was 0.01 ± 0.002 mg. The “Apparent Permeability (Papp)” value (Caco-2 monolayers [2]; 3-day Caco-2, apical-to-basolateral, apical loading […] in 500 µl, 5 h) was 4.9±0.9 10^−6 cm/s and the “Effect on Caco-2 monolayer integrity during transport” value (Caco-2 monolayers [2]; 3-day Caco-2, different loading concentrations, 5 h, TEER) was “without damaging the monolayer”.
In the case of `CC(C)C[C@H](NC(=O)[C@H](CCCCN)NC(=O)CNC(=O)[C@H](CC(C)C)NC(=O)[C@@H](NC(=O)[C@@H]1CSSC[C@H](N)C(=O)N[C@@H](CO)C(=O)N[C@@H](CC(N)=O)C(=O)N[C@@H](CC(C)C)C(=O)N[C@@H](CO)C(=O)N[C@@H]([C@@H](C)O)C(=O)N1)C(C)C)C(=O)N[C@@H](CO)C(=O)N[C@@H](CCC(N)=O)C(=O)N[C@@H](CCC(=O)O)C(=O)N[C@@H](CC(C)C)C(=O)N[C@@H](Cc1c[nH]cn1)C(=O)N[C@@H](CCCCN)C(=O)N[C@@H](CC(C)C)C(=O)N[C@@H](CCC(N)=O)C(=O)N[C@H](C(=O)N[C@@H](Cc1ccc(O)cc1)C(=O)N1CCC[C@H]1C(=O)N[C@@H](CCCNC(=N)N)C(=O)N[C@H](C(=O)N[C@@H](CC(N)=O)C(=O)N[C@H](C(=O)NCC(=O)N[C@@H](CO)C(=O)NCC(=O)N[C@H](C(=O)N1CCC[C@H]1C(N)=O)[C@@H](C)O)[C@@H](C)O)[C@@H](C)O)[C@@H](C)O` [Salmon Calcitonin], the “Total amount transported to the basolateral side” value (Caco-2 monolayers [3]; apical loading 5 µg/well) is reported as 55 ± 2 ng, the “% Transport in 5 hours” value (Caco-2 monolayers [3]; [5]) is reported as 1.1±0.04% and the “% Transport in 5 hours” value (Caco-2 monolayers [3]; [6]) is reported as 0.8±0.4%. For the same molecule, the “Total amount transported to the basolateral side” value (Caco-2 monolayers [3]; apical loading 24 µg/well) was 192 ± 95 ng, the Papp A→B at 5 h, 5 µg/well [4, 5] was 2 ± 0.07 ×10⁻⁶ cm/s and the Papp A→B at 5 h, 24 µg/well [4, 6] was 1.5 ± 0.7 ×10⁻⁶ cm/s. For the same molecule, the “Permeability through rat jejunum” value (rat jejunum) was 1.9±0.5 ×10^−6 cm/sec.
